No end group written: not given here.

Assay [1] relates to Gram-negative and Gram-positive bacteria. Briefly: Anti-microbial activity of analogues and further peptides (bacterium not specified). In kind it is cell-based. The note with it: even at the highest concentration tested (20 μg/ml). The text has this:
A peptide encompassing a selected LPS-binding domain from a well characterized human antiendotoxin protein, known as bactericidal/permeability increasing protein (BPI), from amino acids 85 to 102, denoted as BPI(85-102), was included for a direct comparison of the efficacy of the endotoxin-binding domain of a naturally occurring protein and the synthetic peptides of the invention. The amino acid sequence of the BPI(85-102) peptide is:
The BPI(85-102) reference peptide was synthesized as previously described for peptides of the invention and provided with a C-terminal Cys residue for the purpose of biotinylation as previously described. […] Incubation of various concentrations of the synthetic peptides according to the invention for a limited time period on the survival of both types of bacteria again illustrated their potent anti-microbial activity as opposed to that of the BPI(85-102) peptide (FIG. 1) with the sequence corresponding to that of the potential LPS binding domain of the native BPI protein. This is indicative of a broad specificity of the synthetic peptides, in keeping with the general bactericidal properties of this class of linear amphipathic α-helical peptides. […]

Assay [2] concerns TNF-α production. In words: TNF-α in whole blood ex vivo, peptide added before LPS challenge. Format: cell-based, human. Conditions: 2.5 to 20 μg/ml added 10 min before 1 ng/ml LPS. The protocol: FIG. 12. Effect of pre-challenge addition of synthetic peptides on TNF-a levels induced by E. coli 0111:B4 LPS in whole blood ex vivo. The synthetic peptides BP2, BP2.1 or BP2.2 were added to whole blood containing heparin at 2 I.U/ml at the concentrations indicated and incubated for 10 min at 37° C. TNF-α concentrations were measured after incubation for 4 h at 37° C. subsequent to addition of E. coli 0111:B4 LPS at 1 ng/ml. The values represent the means of triplicate experiments. Controls only contained added LPS.
To determine whether addition of synthetic peptide to whole blood ex vivo prior to endotoxin challenge was effective in endotoxin neutralization assayed in terms of cytokine production, a synthetic peptide of the invention BP2, and the analogues BP2.1 or BP2.2 were added at concentrations of 2.5 to 20 μg/ml to whole blood and incubated for 10 min at 37° C. prior to the addition of 1 ng/ml E. coli 0111:B4 LPS. TNF-α concentrations were determined as previously described. […] The structurally related LPS-binding synthetic peptide analogues BP2.1 and BP2.2 were ineffective in endotoxin neutralization under these conditions.

A short description of assay [3]: Solid-state Lipid A binding ELISA microplate assay. Set-up: species or system Escherichia coli. Conditions: biotinylated derivatives; immobilized E. coli D31m4 Lipid A; Scatchard plot. The protocol: FIG. 3. Lipid A binding affinity of the synthetic peptides. Plastic ELISA microtiter plates were coated with purified E. coli D31m4 Lipid A at 1 μg/ml. Incubations were for 20 min with the indicated concentrations of synthetic peptides BP1, BP2 or BP2.1 or control peptide BPI(85-102) followed by streptavidin-HRP at a dilution of 1 in 20 000. Washing steps to remove excess peptide or streptavidin were with 50 mM Tris buffer pH 7.4 containing 0.05% (v/v) Tween 20. Development was with TMB substrate for 10 min. The optical density (O.D) at 450 nm was measured with a microplate reader and values were corrected for non-specific binding which was generally between 5 and 10%. The plotted values are the corrected means of triplicate experiments.
(§1) Double-immunodiffusion of the peptides of the invention against ‘rough’ R-type E. coli D31m4 Re-LPS (List Biological Laboratories Inc., Calif.) or the structurally more complex ‘smooth’ S-type E. coli 0111:B4 LPS (Sigma Chemical Co., Rockford, Ill.) was performed in 0.8% (w/v) agarose containing 50 mM Tris and 0.1% (w/v) Triton X100, pH 7.5. for 16 h at 20° C. PmB and BPI(85-102) were included as control compounds for comparative purposes. The microprecipitates formed were visualized by Coommassie brilliant blue staining. […] Since the amount of precipitate formed is a function of valency, the peptides of the invention appear to be capable of a high degree of intermolecular binding of LPS molecules via the Lipid A moieties. […] A turbidity assay was employed for a direct comparison of the endotoxin-binding activity or avidity of selected synthetic peptides according to the invention using the ‘rough’ serotypes E. coli Re or Rc (J5) LPS. PmB and BPI(85-102) were included as control compounds for comparative purposes. The degree of precipitation of endotoxin by the synthetic peptides according to the invention was determined by measurement of the optical density of insoluble complexes formed at 340 nm (FIG. 2). In most instances optimal complexation of Re or J5 LPS by the synthetic peptides of the invention was evident at a molar ratio of peptide to endotoxin of 1 to 2. The control BPI(85-102) peptide was required at a 4-fold molar excess for approximately the same degree of complexation. […] There was no significant difference between complexation of Re or the structurally more complex J5-LPS by the synthetic peptides. […] The Lipid A binding affinity of the synthetic peptides were directly compared in a solid-state endotoxin-binding assay. Binding characteristics of biotinylated derivatives of the synthetic peptides BP1, BP2, BP2.1 and the control peptide BPI(85-102) were determined on ELISA microtiter plates coated with E. coli D31m4 Lipid A. Specific binding of the biotinylated peptides to the immobilized Lipid A was determined by development with Streptavidin-HRP and 3, 5, 3′, 5′ tetra-methylbenzidine (TMB) substrate and expressed as the corrected optical density at 450 nm. […] The affinity of the novel synthetic peptide BP2 for endotoxin of increasing complexity as well as the effect of plasma on binding was examined with the use of the ELISA microplate assay.

The subject of assay [4] is TNF-α production. In words: TNF-α in whole blood ex vivo after pre-incubation of LPS with peptide. Format: cell-based, human. Conditions: 1 to 10 μg/ml pre-incubated with 1 ng/ml LPS, even at lowest concentration 1 μg/ml, 4 h at 37° C. The protocol: FIG. 11. Effect of pre-incubation of E. coli 0111:B4 LPS with synthetic peptides or Polymyxin B on TNF-α levels in whole blood ex vivo. The indicated amounts of synthetic, control peptides or PmB were pre-incubated with E. coli 0111:B4 LPS at 1 ng/ml for […] at 23° C., added to whole blood containing heparin at 2 I.U/ml and the TNF-α concentrations determined after incubation for 4 h at 37° C. Each value is the mean of triplicate experiments. Controls only contained LPS.
In addition, the LPS-neutralizing activity of selected synthetic peptides of the invention were compared in a more complex environment of whole blood ex vivo to determine the effect of physiological concentrations of blood components such as plasma proteins, blood cells etc. on the detoxification efficacy. In pre-incubation experiments, concentrations of synthetic peptides, control peptide or PmB from 1 to 10 μg/ml were pre-incubated with 1 ng/ml E. coli 0111:B4 LPS in pyrogen-free saline for 30 min at 23° C., added to venous blood containing heparin at 2 I.U/ml as anti-coagulant and incubated for 4 h at 37° C. TNF-α concentrations were determined in appropriately diluted cell-free supernatants as described before.

Assay [5] in a line: Turbidity assay of endotoxin complexation. Format: binding, Escherichia coli. Conditions: 2-fold molar excess of synthetic peptide. The protocol: FIG. 2. Endotoxin complexation activity of the synthetic peptides. Peptides at concentrations of 100 to 600 μg/ml were incubated with E. coli D31m4 Re or J5 LPS at 100 μg/ml in a total volume of 100 μl pyrogen-free phosphate buffered saline (PBS) in plastic ELISA microtiter plates for 30 min at 23° C. The turbidity produced by the insoluble peptide-endotoxin complexes was measured at 340 nm. The values represent the mean of three determinations and were corrected for controls containing the same concentrations of endotoxin or peptide.
as §1

A short description of assay [6]: Double-immunodiffusion against 0111:B4 LPS. Format: binding, Escherichia coli. Conditions: 0.8% agarose, 16 h at 20° C.; data not shown. The protocol:
Double-immunodiffusion of the peptides of the invention against ‘rough’ R-type E. coli D31m4 Re-LPS (List Biological Laboratories Inc., Calif.) or the structurally more complex ‘smooth’ S-type E. coli 0111:B4 LPS (Sigma Chemical Co., Rockford, Ill.) was performed in 0.8% (w/v) agarose containing 50 mM Tris and 0.1% (w/v) Triton X100, pH 7.5. for 16 h at 20° C. PmB and BPI(85-102) were included as control compounds for comparative purposes. The microprecipitates formed were visualized by Coommassie brilliant blue staining. […] Since the amount of precipitate formed is a function of valency, the peptides of the invention appear to be capable of a high degree of intermolecular binding of LPS molecules via the Lipid A moieties. […] The degree of precipitation of endotoxin by the synthetic peptides according to the invention was determined by measurement of the optical density of insoluble complexes formed at 340 nm (FIG. 2). […] Binding characteristics of biotinylated derivatives of the synthetic peptides BP1, BP2, BP2.1 and the control peptide BPI(85-102) were determined on ELISA microtiter plates coated with E. coli D31m4 Lipid A. Specific binding of the biotinylated peptides to the immobilized Lipid A was determined by development with Streptavidin-HRP and 3, 5, 3′, 5′ tetra-methylbenzidine (TMB) substrate and expressed as the corrected optical density at 450 nm. […]

Assay [7] relates to IL-6 inducing ability of E. coli 0111:B4 LPS. In words: Effect of heparin on neutralization of IL-6 inducing ability of LPS. In kind it is cell-based, human. The note with it: heparin 0.1 to 100 I.U/ml. The protocol: FIG. 10. Effect of heparin on the efficacy of neutralization of the IL-6 inducing ability of E. coli 0111:B4 LPS by synthetic peptide or Polymyxin B in whole blood diluted 1 in 10. Synthetic peptides at concentrations of 2 μg/ml or PmB at 1 μg/ml was pre-incubated for 30 min at 37° C. with E. coli 0111:B4 LPS at 1 ng/ml in RPMI medium containing heparin in the concentration range of 0.1 to 100 I.U/ml. The residual cytokine inducing ability of the treated endotoxin was determined in diluted whole blood containing heparin at 2 IU/ml after incubation for 16 h at 37° C. Each value is the mean of triplicate determinations corrected for background. Controls contained only LPS.
The endotoxin neutralizing activities of the synthetic peptides of the invention were evaluated by investigating the effect on LPS-stimulated release of the pro-inflammatory cytokines, tumor necrosis factor alpha (TNF-α), interleukin-6 (IL-6) or interleukin-8 (IL-8) in a well characterized in vitro human whole blood bioassay system. In one series of experiments, dilutions of E. coli 0111:B4 LPS from 0.2 to 1 ng/ml were pre-incubated with synthetic peptides at 10 μg/ml concentrations in RPMI medium for 30 min at 20° C. and added to diluted whole blood. Cytokine concentrations in the supernatants were determined after further incubation for 16 h at 37° C. in the presence of 5% CO2 by specific and sensitive ELISA kits (CLB, Amsterdam, The Netherlands). In another series of experiments, the effects of synthetic peptides at concentrations of 2,5, 5 and 10 μg/ml on IL-6 induction by 1 ng/ml 0111:B4 LPS was examined after simultaneous addition of synthetic peptide and LPS to diluted whole blood. […] The control peptide BPI(85-102) was ineffective in reducing cytokine production under these conditions even at a 4-fold higher concentration. This probably reflects the differences in binding affinity for Lipid A of BP1 and BP2 compared with the BPI(85-102) peptide of approximately 5 and 10-fold, respectively. An additional factor which may have influenced binding of the control peptide to endotoxin is the presence of heparin employed as an anti-coagulant at a concentration of […] in the assay system. […] On this basis, it was predicted that the extent of reduction of endotoxin neutralizing efficacy would be a function of the differences in affinity between peptides for endotoxin and heparin. To verify this hypothesis, a series of experiments to determine the effect of increasing heparin concentrations on the efficacy of endotoxin neutralization during pre-incubation of synthetic peptide and E. coli 0111:B4 LPS were performed. FIG. 10 illustrates a dose-dependent suppression of endotoxin neutralizing activity of the synthetic peptides by heparin as exemplified by a reduction of IL-6 inhibition. […]

For assay [8] the following is noted: comparison value; cited from earlier work.

“GKLKKKWKAAKKFLKKCS [BP1.1, analogue similar to the formula]”: in assay [1], the anti-microbial activity result is given as “no detectable anti-microbial activity”.

Consider “GKWKLFKKAAKKFLKKCS [BP2.1, analogue similar to the formula]”, for which, in the assay with TNF-α production [2], the “endotoxin neutralization (TNF-α production)” value is recorded as “ineffective”. In addition, the “apparent binding affinity Ka for Lipid A” value in assay [3] was 4e+07 M⁻¹. The “inhibition of TNF-α production” value in the assay with TNF-α production [4] was “no significant reduction”. Further, the anti-microbial activity entry in assay [1] is reported as “no detectable anti-microbial activity”. Also, the “avidity order (degree of insoluble peptide-endotoxin complex formation)” value (“avidity order” below) in assay [5] was “BP2.1>BP2.2>BP2>BP1>PmB >BPI(85-102)”.

Turning to Polymyxin B [PmB, reference compound], the “precipitation of 0111 LPS” value in assay [6] is on record as “failed to precipitate”. Moreover, the “influence of heparin on LPS-neutralizing activity” value in assay [7] was “not influenced”. Further, the “Ka for Lipid A of known LPS binding molecule” value in assay [8] is given as 10^7 M^−1. Also, in the assay with TNF-α production [4], the “inhibition of TNF-α production” value is given as “almost complete inhibition”. For the same substance, the “avidity order” value in assay [5] is listed as “BP2.1>BP2.2>BP2>BP1>PmB >BPI(85-102)”.

Take “GKWKAFKKAAKKFAKKCS [BP2.2, analogue similar to the formula]”: the “endotoxin neutralization (TNF-α production)” value with TNF-α production [2] is “ineffective”. Further, the “inhibition of TNF-α production” value in the assay on TNF-α production [4] is “no significant reduction”. Also, in assay [5], the “avidity order” value is on record as “BP2.1>BP2.2>BP2>BP1>PmB >BPI(85-102)”.

The values are drawn from patent publication US6624140B1, “Synthetic peptides with antimicrobial and endotoxin neutralizing properties for management of the sepsis syndrome” (Academisch Ziekenhuis Bij de Universiteit van Amsterdam …, priority 1997, dated 2003).
